Source: PubChem BioAssay (NCI)
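In this assay, cells in 96-well plates receive the compound at five concentrations for 48 hours. Endpoints are linearly interpolated between the surrounding concentrations. TGI denotes the concentration required for complete inhibition of growth.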

Legend:
Test in all cases: NCI tumour cell line growth inhibition, 48 h
LOX IMVI melanoma = tested on: LOX IMVI melanoma
HCC-2998 colon = tested on: HCC-2998 colon
NCI/ADR-RES ovarian = tested on: NCI/ADR-RES ovarian
A549 NSCLC = tested on: A549 NSCLC
CCRF-CEM leukemia = tested on: CCRF-CEM leukemia
ACHN renal = tested on: ACHN renal
TK-10 renal = tested on: TK-10 renal
SW-620 colon = tested on: SW-620 colon
BT-549 breast = tested on: BT-549 breast
COLO 205 colon = tested on: COLO 205 colon
UACC-257 melanoma = tested on: UACC-257 melanoma
OVCAR-4 ovarian = tested on: OVCAR-4 ovarian
MDA-MB-231 breast = tested on: MDA-MB-231 breast
CAKI-1 renal = tested on: CAKI-1 renal
T-47D breast = tested on: T-47D breast
MALME-3M melanoma = tested on: MALME-3M melanoma
HOP-92 NSCLC = tested on: HOP-92 NSCLC
NCI-H460 lung = tested on: NCI-H460 lung
DU-145 prostate = tested on: DU-145 prostate
RXF 393 renal = tested on: RXF 393 renal
SF-539 CNS = tested on: SF-539 CNS
SK-MEL-5 melanoma = tested on: SK-MEL-5 melanoma
SF-295 CNS = tested on: SF-295 CNS
IGROV1 ovarian = tested on: IGROV1 ovarian
HS 578T breast = tested on: HS 578T breast
HOP-62 NSCLC = tested on: HOP-62 NSCLC
SN12C renal = tested on: SN12C renal
HCT-116 colon = tested on: HCT-116 colon
786-0 renal = tested on: 786-0 renal
EKVX NSCLC = tested on: EKVX NSCLC
MDA-N = tested on: MDA-N
RPMI-8226 leukemia = tested on: RPMI-8226 leukemia
OVCAR-8 ovarian = tested on: OVCAR-8 ovarian
UACC-62 melanoma = tested on: UACC-62 melanoma
KM12 colon = tested on: KM12 colon
PC-3 prostate = tested on: PC-3 prostate
OVCAR-3 ovarian = tested on: OVCAR-3 ovarian
SK-OV-3 ovarian = tested on: SK-OV-3 ovarian
MCF7 breast = tested on: MCF7 breast
SF-268 CNS = tested on: SF-268 CNS
A498 renal = tested on: A498 renal
SNB-19 CNS = tested on: SNB-19 CNS
HT29 colon = tested on: HT29 colon
NCI-H226 lung = tested on: NCI-H226 lung
M14 melanoma = tested on: M14 melanoma
K-562 leukemia = tested on: K-562 leukemia
SK-MEL-2 melanoma = tested on: SK-MEL-2 melanoma
NCI-H522 lung = tested on: NCI-H522 lung
NCI-H23 lung = tested on: NCI-H23 lung
HCT-15 colon = tested on: HCT-15 colon
MDA-MB-435 = tested on: MDA-MB-435
OVCAR-5 ovarian = tested on: OVCAR-5 ovarian
SNB-75 CNS = tested on: SNB-75 CNS
SK-MEL-28 melanoma = tested on: SK-MEL-28 melanoma
MOLT-4 leukemia = tested on: MOLT-4 leukemia
UO-31 renal = tested on: UO-31 renal
U251 CNS = tested on: U251 CNS
HL-60(TB) leukemia = tested on: HL-60(TB) leukemia

[N-]=[N+]=Nc1c([N+](=O)[O-])c(Cl)nc2ccccc12
TGI (LOX IMVI melanoma): 3.07 µM | TGI (HCC-2998 colon): 4.17 µM | TGI (NCI/ADR-RES ovarian): 6.3 µM | TGI (A549 NSCLC): 35.2 µM | TGI (CCRF-CEM leukemia): 1.44 µM | TGI (ACHN renal): 3.22 µM | TGI (TK-10 renal): 3.78 µM | TGI (SW-620 colon): 1.73 µM | TGI (BT-549 breast): 3.11 µM | TGI (COLO 205 colon): 3.29 µM | TGI (UACC-257 melanoma): 3.45 µM | TGI (OVCAR-4 ovarian): 4.75 µM | TGI (MDA-MB-231 breast): 3.65 µM | TGI (CAKI-1 renal): 4.58 µM | TGI (T-47D breast): 4.82 µM | TGI (MALME-3M melanoma): 3.41 µM | TGI (HOP-92 NSCLC): 3.66 µM | TGI (NCI-H460 lung): 33.2 µM | TGI (DU-145 prostate): 5.35 µM | TGI (RXF 393 renal): 3.28 µM | TGI (SF-539 CNS): 9.74 µM | TGI (SK-MEL-5 melanoma): 21.3 µM | TGI (SF-295 CNS): 38.5 µM | TGI (IGROV1 ovarian): 4.04 µM | TGI (HS 578T breast): 8.64 µM | TGI (HOP-62 NSCLC): 41.4 µM | TGI (SN12C renal): 5.32 µM | TGI (HCT-116 colon): 3.09 µM | TGI (786-0 renal): 1.11 µM | TGI (EKVX NSCLC): 7.45 µM | TGI (MDA-N): 6.56 µM | TGI (RPMI-8226 leukemia): > 20.8 µM | TGI (OVCAR-8 ovarian): 3.98 µM | TGI (UACC-62 melanoma): 9.07 µM | TGI (KM12 colon): 21.1 µM | TGI (PC-3 prostate): 4.75 µM | TGI (OVCAR-3 ovarian): 2.86 µM | TGI (SK-OV-3 ovarian): 27.7 µM | TGI (MCF7 breast): 4.25 µM | TGI (SF-268 CNS): 11.7 µM | TGI (A498 renal): 26.8 µM | TGI (SNB-19 CNS): 27.8 µM | TGI (HT29 colon): 5.09 µM | TGI (NCI-H226 lung): 33.5 µM | TGI (M14 melanoma): 3.27 µM | TGI (K-562 leukemia): 1.74 µM | TGI (SK-MEL-2 melanoma): 5.07 µM | TGI (NCI-H522 lung): 0.866 µM | TGI (NCI-H23 lung): 6.64 µM | TGI (HCT-15 colon): 3.77 µM | TGI (MDA-MB-435): 6.64 µM | TGI (OVCAR-5 ovarian): 5.63 µM | TGI (SNB-75 CNS): 22.1 µM | TGI (SK-MEL-28 melanoma): 5.23 µM | TGI (MOLT-4 leukemia): 0.89 µM | TGI (UO-31 renal): 1.58 µM | TGI (U251 CNS): 12.4 µM

Cc1cc2c(cc1C)[n+](=O)c(N1CCN(c3ccc([N+](=O)[O-])cc3)CC1)c(C#N)n2[O-]
TGI (LOX IMVI melanoma): > 100 µM | TGI (HCC-2998 colon): > 100 µM | TGI (NCI/ADR-RES ovarian): > 100 µM | TGI (A549 NSCLC): > 100 µM | TGI (CCRF-CEM leukemia): > 100 µM | TGI (ACHN renal): 50.8 µM | TGI (TK-10 renal): 35.3 µM | TGI (SW-620 colon): > 100 µM | TGI (BT-549 breast): > 100 µM | TGI (COLO 205 colon): > 100 µM | TGI (UACC-257 melanoma): > 100 µM | TGI (OVCAR-4 ovarian): > 100 µM | TGI (MDA-MB-231 breast): 78.1 µM | TGI (CAKI-1 renal): > 100 µM | TGI (T-47D breast): 63.7 µM | TGI (MALME-3M melanoma): > 100 µM | TGI (HOP-92 NSCLC): 56.7 µM | TGI (NCI-H460 lung): 70 µM | TGI (DU-145 prostate): > 100 µM | TGI (RXF 393 renal): 29.9 µM | TGI (SK-MEL-5 melanoma): > 100 µM | TGI (SF-295 CNS): 37.8 µM | TGI (IGROV1 ovarian): > 100 µM | TGI (HS 578T breast): > 100 µM | TGI (HOP-62 NSCLC): 31.7 µM | TGI (SN12C renal): > 100 µM | TGI (HCT-116 colon): > 100 µM | TGI (786-0 renal): 59.8 µM | TGI (EKVX NSCLC): > 100 µM | TGI (MDA-N): > 100 µM | TGI (RPMI-8226 leukemia): > 100 µM | TGI (HL-60(TB) leukemia): > 100 µM | TGI (OVCAR-8 ovarian): 49.8 µM | TGI (UACC-62 melanoma): 59.9 µM | TGI (KM12 colon): > 100 µM | TGI (PC-3 prostate): > 100 µM | TGI (SK-OV-3 ovarian): 30.9 µM | TGI (MCF7 breast): > 100 µM | TGI (SF-268 CNS): > 100 µM | TGI (A498 renal): > 100 µM | TGI (SNB-19 CNS): 49.6 µM | TGI (HT29 colon): > 100 µM | TGI (NCI-H226 lung): > 100 µM | TGI (M14 melanoma): > 100 µM | TGI (SK-MEL-2 melanoma): 66 µM | TGI (NCI-H522 lung): 88.3 µM | TGI (NCI-H23 lung): > 100 µM | TGI (HCT-15 colon): > 100 µM | TGI (MDA-MB-435): > 100 µM | TGI (OVCAR-5 ovarian): > 100 µM | TGI (SNB-75 CNS): 21.7 µM | TGI (SK-MEL-28 melanoma): > 100 µM | TGI (UO-31 renal): > 100 µM | TGI (U251 CNS): 80.9 µM
